Results from ChEMBL document CHEMBL1145168, “Farnesoid X receptor: from structure to potential clinical applications” (J Med Chem, 2005).
pEC50, pIC50: −log10 of the molar value.

Legend:
Bile acid receptor = target: T1, Bile acid receptor (Homo sapiens, UniProt Q96RI1); assay: Activation of human farnesoid X receptor in FRET assay
T1 sequence (Q96RI1 whole entry): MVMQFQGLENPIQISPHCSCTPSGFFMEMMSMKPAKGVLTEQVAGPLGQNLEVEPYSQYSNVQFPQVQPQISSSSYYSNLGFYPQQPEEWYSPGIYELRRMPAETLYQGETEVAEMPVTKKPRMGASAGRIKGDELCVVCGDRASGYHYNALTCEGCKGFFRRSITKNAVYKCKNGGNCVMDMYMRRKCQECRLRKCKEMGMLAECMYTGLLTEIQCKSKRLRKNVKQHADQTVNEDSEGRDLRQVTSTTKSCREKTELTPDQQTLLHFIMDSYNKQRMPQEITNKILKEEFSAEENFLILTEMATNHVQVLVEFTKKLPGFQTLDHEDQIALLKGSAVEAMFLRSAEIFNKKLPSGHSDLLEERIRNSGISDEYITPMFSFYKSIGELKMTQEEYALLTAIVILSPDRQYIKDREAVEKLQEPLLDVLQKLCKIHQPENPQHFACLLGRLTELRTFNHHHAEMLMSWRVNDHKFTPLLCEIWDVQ

Homo sapiens = species on record: Homo sapiens; assay: Activation of human Farnesoid X receptor/Retinoic X receptor at 5 uM
[1] = Inhibition of human Farnesoid X receptor/Retinoid X receptor heterodimer; Antagonistic activity; format: functional

pEC50 (Bile acid receptor)	Fold activation (Homo sapiens)	Structure (SMILES)	further results
6.59		CN(C)c1ccc(-c2ccc(CN(C(=O)C3CCCCC3)c3cccc(/C=C/C(=O)O)c3)cc2)cc1	
	91	CC1(C)CCC(C)(C)c2cc(C(Cc3ccc(C(=O)O)cc3)[Si](C)(C)C)ccc21 (stereo unspecified)	
	85	CCCC/C(=C\c1ccc(C(=O)O)cc1)c1ccc2c(c1)C(C)(C)CCC2(C)C	
6.59		O=C(O)/C=C/c1cccc(N(Cc2ccc(/C=C/c3ccccc3)cc2)C(=O)C2CCCCC2)c1	
		CCCCCCOc1c(\C(C)=C/C=C/C(C)=C/C(=O)O)cc(C(C)C)cc1C(C)C	pIC50 [1]: > 8.00
6.65		O=C(O)/C=C/c1cccc(N(Cc2ccc(-c3ccc4c(c3)OCO4)cc2)C(=O)C2CCCCC2)c1	
